In the assay the test system is CEM cells HIV-1 protection, formazan growth assay. As to the kind of experiment: NCI AIDS Antiviral Assay. The following applies: for IC50: measured here: growth of uninfected CEM cells. The method, boiled down:
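Human CEM cells, uninfected and HIV-1-infected, received five drug concentrations, and growth was read by soluble formazan assay. Compounds giving at least 50% protection were retested; reproducible 100% protection defined confirmed active.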

Here are results for 75 compounds from PubChem BioAssay AID179 (DTP/NCI, 2004).

The source made the active and inactive calls.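 How the source made its calls: active means compounds giving half or more protection of infected cells from virus-caused growth loss, again on retest; inactive means the rest.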 Some results are limits rather than exact numbers.

For the compound `Cc1c(Cl)c(=O)oc2c3c(ccc12)OC(C)(C)[C@H](OC(=O)C12CCC(C)(C(=O)O1)C2(C)C)[C@@H]3OC(=O)C12CCC(C)(C(=O)O1)C2(C)C` (some centres not stated), the EC50 – broadly, the concentration giving half of the maximal effect – is 0.282 µM and the IC50 (in general, the midpoint of a concentration-inhibition curve) turned out to be 5.62 µM.

`Cc1cc(C)c(NS(=O)c2cccc(Cl)c2)c(C)c1` (configuration not stated): the EC50 is greater than 123 µM and the IC50 was greater than 123 µM.

For the compound `O=S(=O)(N(c1ccc(Cl)cn1)S(=O)(=O)C(F)(F)F)C(F)(F)F`, the EC50 is greater than 200 µM and the IC50 is greater than 200 µM.

For `O=C(Nc1ccccc1)C1CC=C2CCC3OC(=O)C1C23` (configuration not stated), the EC50 is greater than 331 µM and the IC50 was greater than 331 µM.

As to `OCc1c[te]c(-c2ccccc2)c1`, the result was inactive.

On to `COc1ccc(OC)c(/C=C/c2cnnc3ccccc23)c1`, for which the EC50 is greater than 64.6 µM and the IC50 turned out to be 3.16 µM.

As for `[O-][n+]1onc2c1CCC(=N\O)/C2=N/Nc1ccccc1`, the EC50 is greater than 200 µM and the IC50 came out at 155 µM.

Consider `CN(C)C(=O)CC(C(=O)O)c1c[nH]c2ccccc12` (configuration not stated), for which the EC50 is greater than 309 µM and the IC50 was greater than 309 µM.

As to `COc1cc2c(cc1OC)NC(C)=CC(C)=N2`, the EC50 was greater than 200 µM and the IC50 was greater than 200 µM.

For `O=C(O)C(F)(OC(F)(F)C(F)(OC(F)(F)C(F)(F)C(F)(F)F)C(F)(F)F)C(F)(F)F` (configuration not stated), the EC50 was greater than 200 µM and the IC50 was greater than 200 µM.

On to `CN1CCN(c2n[nH]c(=O)c3c2nnn3C2CCCCC2)CC1`, for which the EC50 was greater than 200 µM and the IC50 was greater than 200 µM.

With `CC(=O)Nc1ccc(S(=O)(=O)N/N=C/C(=O)O)cc1`, the EC50 was greater than 200 µM and the IC50 is greater than 200 µM.

In the case of `O=C(O)C12C3CCCC1C2CC3` (configuration not stated), the result was inactive.

Turning to `O=S1(=O)c2ccccc2C(Nc2ccccc2)N1c1ccccc1` (configuration not stated), the EC50 is greater than 200 µM and the IC50 amounted to 66.1 µM.

For the compound `O=NNc1cnccn1`, the EC50 is greater than 1700 µM and the IC50 is greater than 1700 µM.

For `CCOC(=O)C1=CC(C)(C(=O)OCC)Nc2c(nc(OC)n(C)c2=O)N1` (configuration not stated), the EC50 is greater than 200 µM and the IC50 was greater than 200 µM.

`CC(=O)NS(=O)(=O)c1ccc(NC(=O)c2ccccc2SC(C)=O)cc1`: the EC50 is 17 µM and the concentration for half-maximal inhibition (IC50) worked out at 112 µM.

`COc1ccc(C)[n+]([O-])n1`: the EC50 is greater than 200 µM and the half-inhibitory concentration (IC50) was greater than 200 µM.

Consider `Oc1ccc(-c2ccc(O)cc2O)c(O)c1`, for which the EC50 is greater than 200 µM and the IC50 amounted to 132 µM.

With `CCN(CC)Cc1c(C(=O)NCCO)[n+](=O)c2ccccc2n1[O-]`, the EC50 is greater than 178 µM and the IC50 was greater than 178 µM.

On to `COc1ccc(C2CC(=O)c3cc(OC)ccc3O2)cc1` (configuration not stated), for which the EC50 was greater than 200 µM and the IC50 was greater than 200 µM.

As for `c1sc(NC2=NCCO2)c2c1CCCC2`, the EC50 was greater than 200 µM and the IC50 came out at 166 µM.

As for `CC12OC3(O)C4C5CC(C6C5C3C61)C42` (configuration not stated), the result was inactive.

In the case of `O=c1oc2ccccc2c2nc3c([N+](=O)[O-])cccc3cc12`, the EC50 is greater than 200 µM and the IC50 was 8.13 µM.

`CC1=NN(c2ccccc2)C(=O)C1N=Nc1ccc(Br)c(C)c1` (configuration not stated): the outcome was inactive.

Regarding `CN(C)CCNC(=O)c1cnn(C)c1[N+](=O)[O-]`, the EC50 was greater than 200 µM and the IC50 is greater than 200 µM.

For the compound `C=CCCCCOC1C=CC(O)C(CO)O1` (configuration not stated), the EC50 is greater than 200 µM and the IC50 is greater than 200 µM.

For the compound `Cc1cn(C2CCC(COP(=O)(OCOC(=O)C(C)(C)C)OCOC(=O)C(C)(C)C)O2)c(=O)[nH]c1=O` (configuration not stated), the result was active.

In the case of `CN(C)CCN(C)P12(Oc3ccccc3O1)Oc1c(Cl)c(Cl)c(Cl)c(Cl)c1O2`, the EC50 is greater than 43.7 µM and the half-inhibitory concentration (IC50) is 24.5 µM.

As to `O=C1NNC(=O)C2C3C=CC(O3)C12` (configuration not stated), the EC50 was greater than 200 µM and the IC50 is greater than 200 µM.

On to `NC(=O)C(=O)c1ncn(Cc2ccccc2)c1N`, for which the EC50 was greater than 200 µM and the IC50 is greater than 200 µM.

With `CC1=C(C(=O)NCc2ccccc2)C(c2ccccc2[N+](=O)[O-])C(C(=O)NCc2ccccc2)=C(C)N1`, the EC50 was greater than 7.59 µM and the IC50 was greater than 7.59 µM.

As to `O=c1c2cccnc2n2n1Cc1ccccc1C2`, the EC50 was greater than 200 µM and the IC50 is 151 µM.

On to `CCOC(=O)c1ccc(CSc2ccc(Cl)cc2)cc1`, for which the EC50 is greater than 4.68 µM and the IC50 was greater than 4.68 µM.

For the compound `O=C(Nc1ccc(Cl)cc1)c1ccccc1[Se][Se]c1ccccc1C(=O)Nc1ccc(Cl)cc1`, the EC50 was 2.95 µM and the IC50 stood at 8.51 µM.

Consider `CC1=NN(C(=O)CC(=O)Nc2cccc(C)c2)C(=O)C1N=Nc1ccc(S(=O)(=O)c2ccc(N=NC3C(=O)N(C(=O)CC(=O)Nc4cccc(C)c4)N=C3C)cc2)cc1` (configuration not stated), for which the EC50 was greater than 50.1 µM and the IC50 is greater than 50.1 µM.

Turning to `CCN1CCN(c2ccc(Nc3ccnc4ccc5nn(C)nc5c34)cc2)CC1`, the EC50 was greater than 18.6 µM and the IC50 turned out to be 7.24 µM.

As to `COc1ccccc1C=NC12CC3CC(CC(C3)C1)C2`, the EC50 was greater than 132 µM and the IC50 turned out to be 110 µM.

As for `CCNCC(O)c1ccc(N)c([N+](=O)[O-])c1` (configuration not stated), the EC50 was greater than 200 µM and the IC50 is greater than 200 µM.

As for `Nc1ncnc2c1ncn2C1CCC(COS(N)(=O)=O)C1` (configuration not stated), the EC50 is greater than 200 µM and the IC50 is greater than 200 µM.

On to `COC1=C(NC(C)=O)C(=O)c2nc3n(c2C1=O)CCC3`, for which the EC50 was greater than 200 µM and the IC50 stood at 75.9 µM.

Take `Clc1ccc2sc(-n3ccc4ccccc43)nc2c1`: the EC50 was greater than 200 µM and the IC50 stood at 170 µM.

For `O=[N+]([O-])c1cc(-c2ccccc2)c([O][Sn]([c]2ccccc2)([c]2ccccc2)[c]2ccccc2)c([N+](=O)[O-])c1`, the EC50 was greater than 200 µM and the IC50 came out at 3.8 µM.

For the compound `Cc1cccc(/C=N/NC(=S)Nc2ccc(Cl)cc2)n1`, the EC50 is greater than 200 µM and the half-maximal inhibitory concentration (IC50) came out at 3.16 µM.

For the compound `N#Cc1cnc2nc1NCCCCCCC2`, the EC50 is greater than 204 µM and the IC50 turned out to be 132 µM.

Regarding `CC(C)C(=O)Nc1nc2c(ncn2C2OC(CO)C(O)C2O)c(=O)[nH]1` (configuration not stated), the EC50 is greater than 708 µM and the IC50 is 513 µM.

As for `FC(F)(Sc1ncccn1)c1nc2ccccc2o1`, the EC50 was 19.5 µM and the IC50 was 102 µM.

For `Fc1c(F)c(F)c(S)c(F)c1F`, the result was active.

`Cc1cc(-c2cscn2)c(O)c([N+](=O)[O-])c1`: the EC50 was greater than 200 µM and the IC50 was 35.5 µM.

Regarding `CCN(CC)Cc1cc(Nc2c3ccccc3nc3c2[nH]c2ccccc23)cc(CN(CC)CC)c1O`, the EC50 was greater than 427 µM and the IC50 was 0.269 µM.

Consider `CC(C)(C)OC(=O)CN1CCNCCN(CC(=O)OC(C)(C)C)CC1`, for which the EC50 was greater than 200 µM and the IC50 is 38 µM.

As to `COc1cccc(/C=N/[N-]C(=O)c2ccncc2)c1[O-].COc1cccc(/C=N/[N-]C(=O)c2ccncc2)c1[O-].[O]=[U](=[O])([OH2+])[OH2+]`, the EC50 was greater than 214 µM and the IC50 came out at 4.9 µM.

Regarding `Nc1nnnn1-c1ccccc1`, the EC50 was greater than 200 µM and the IC50 is greater than 200 µM.

In the case of `N#Cc1c(NC(=S)NC(=O)c2ccccc2)nc2c(c1-c1ccccc1)CCCC2`, the EC50 is greater than 200 µM and the IC50 was 141 µM.

Consider `C#CCNC(CSSCC(N)C(=O)O)C(=O)O` (configuration not stated), for which the EC50 was 6.92 µM and the IC50 is greater than 200 µM.

Take `CCOC(=O)c1[nH]n(-c2ccccc2)c(=O)c1/C=N/C(=S)Nc1ccc(Cl)cc1Cl`: the EC50 is greater than 200 µM and the IC50 was greater than 200 µM.

As for `Cc1ccc2ccc3c(-c4ccccc4)cc(C)nc3c2n1.Cc1ccc2ccc3c(-c4ccccc4)cc(C)nc3c2n1.O=C1OC(C(O)C[O-])C(O)=C1O.[Cu+]`, the EC50 is greater than 12.6 µM and the IC50 was 0.55 µM.

With `CCOC(=O)c1cc2c([nH]1)C(=O)CSC1=C2CCN1Cc1ccccc1`, the EC50 was greater than 50.1 µM and the IC50 worked out at 21.9 µM.

With `Cc1cc(O)c2c(c1)C(C13Cc4cc(O)c5c(c4[C@H]1C=C[C@@H](O)[C@H]3O)C(=O)c1cccc(O)c1C5=O)OC2=O` (some centres not stated), the result was inactive.

Turning to `CCOC(=O)c1cc2c3c(cc(OC)c2[nH]1)N(C(=O)OCC)CC3`, the EC50 is greater than 100 µM and the concentration for half-maximal inhibition (IC50) is greater than 100 µM.

For `C/C(=N/OC(=O)N(C)C)c1ccc(Cl)c(Cl)c1`, the EC50 is greater than 200 µM and the IC50 was 102 µM.

In the case of `CON(C)c1nc(Cl)nc(Cl)n1`, the EC50 was greater than 200 µM and the IC50 is greater than 200 µM.

`CCOC(=O)/C=C/c1ccc(Br)cc1`: the EC50 is greater than 28.2 µM and the IC50 is greater than 28.2 µM.

In the case of `CC1SC2=NC3=C(c4ccccc4C3=O)C(c3ccc(Br)cc3)N2C1=O` (configuration not stated), the EC50 is greater than 32.4 µM and the IC50 was greater than 32.4 µM.

For `Cc1cs/c(=N\C(P(=O)(O)O)P(=O)(O)O)n1C`, the EC50 is greater than 100 µM and the IC50 was greater than 100 µM.

For the compound `OCC1=CCC2c3[nH]c4ccccc4c3CCN2C1` (configuration not stated), the EC50 was greater than 372 µM and the IC50 is greater than 372 µM.

For the compound `O=C1C=C(Nc2ccc(Cl)cc2Cl)c2ccccc2C1=O`, the EC50 is greater than 1.7 µM and the IC50 was greater than 1.7 µM.

For the compound `COc1nc(C)nc2sc3c(c12)CCCC3`, the EC50 is greater than 100 µM and the IC50 was greater than 100 µM.

For `CCCC(=O)n1[nH]c(=O)n(-c2ccc(Cl)cc2)c1=O`, the EC50 is greater than 200 µM and the IC50 is greater than 200 µM.

For the compound `COc1ccc2[nH]c3c(c2c1)C(=O)c1ccncc1C3=O`, the EC50 is greater than 20 µM and the IC50 was found to be 1.2 µM.

For `O=CC(=O)c1ccccc1`, the result was inactive.

For the compound `CCC1(O)C(=O)OCc2c1cc(-c1ccc(Cl)cc1)nc2OC` (configuration not stated), the EC50 was greater than 200 µM and the IC50 is greater than 200 µM.

As for `COc1ccc(N2C(=O)C3c4[nH]c5ccc(F)cc5c4C4CCC(C(C)(C)C)CC4C3C2=O)cc1` (configuration not stated), the EC50 was greater than 200 µM and the IC50 worked out at 22.4 µM.

For `CCCC1C(=O)N2C(N(C)C)=Nc3ccc(C)cc3N2C1=O` (configuration not stated), the EC50 is greater than 832 µM and the IC50 worked out at 457 µM.

As for `COCn1c2ccccc2c2nc(-c3ccncc3)nc(-c3ccncc3)c21`, the EC50 was greater than 3.98 µM and the IC50 was greater than 3.98 µM.
